According to BindingDB's records for doi:10.1021/jm00058a012 (University of Arizona, 1993):
Bridge positions count the residues as written; N and C are the ends. Square brackets hold non-standard residues; d marks the D form. Peptide text beside a SMILES is read from it. Pen = CC(C)(S)[C@H](N)C(=O)O

Columns and labels:
[1] = Inhibition of [3H]DPDPE binding to delta opioid receptor of guinea pig brain homogenate
[2] = as above; remark: listed apart in the source

Work on `CC[C@H](C)[C@H](NC(=O)[C@H](CCCN=C(N)N)NC(=O)[C@H](CCCN=C(N)N)NC(=O)[C@H](CC(C)C)NC(=O)[C@H](Cc1ccccc1)NC(=O)CNC(=O)CNC(=O)[C@@H](N)Cc1ccc(O)cc1)C(=O)N[C@@H](CCCN=C(N)N)C(=O)N1CCC[C@H]1C(=O)N[C@@H](CCCCN)C(=O)N[C@@H](CC(C)C)C(=O)N[C@@H](CCCCN)C(=O)O` [Dynorphin A (1-13)] yielded an IC50 [1] of 4.1 nM.

Molecule `CC[C@H](C)[C@@H]1NC(=O)[C@H](CCCNC(=N)N)NC(=O)[C@H](CCCNC(=N)N)NC(=O)[C@@H](NC(=O)[C@H](Cc2ccccc2)NC(=O)CNC(=O)CNC(=O)[C@@H](N)Cc2ccccc2)CSSC[C@@H](C(N)=O)NC(=O)[C@@H]2CCCN2C(=O)[C@H](CCCNC(=N)N)NC1=O` [Phe-Gly-Gly-Phe-c(Cys-Arg-Arg-Ile-Arg-Pro-Cys)] (H-FGGFCRRIRPC-NH2; disulfide 5-11) has an IC50 [1] of 389 nM.

In the case of `CC[C@H](C)[C@@H]1NC(=O)[C@H](CCCN=C(N)N)NC(=O)[C@H](CCCN=C(N)N)NC(=O)[C@@H](NC(=O)[C@H](Cc2ccccc2)NC(=O)CNC(=O)[C@@H](C)NC(=O)[C@@H](N)Cc2ccc(O)cc2)CSSC[C@@H](C(N)=O)NC(=O)[C@@H]2CCCN2C(=O)[C@H](CCCN=C(N)N)NC1=O` [Tyr-(D-ala)-Gly-Phe-c(Cys-Arg-Arg-Ile-Arg-Pro-Cys)], the IC50 [1] is reported as 107 nM.

`CC[C@H](C)[C@@H]1NC(=O)[C@H](CCCN=C(N)N)NC(=O)[C@H](CCCN=C(N)N)NC(=O)[C@@H](NC(=O)[C@@H]2Cc3ccccc3CN2C(=O)CNC(=O)CNC(=O)[C@@H](N)Cc2ccc(O)cc2)CSSC[C@@H](C(=O)O)NC(=O)[C@@H]2CCCN2C(=O)[C@H](CCCN=C(N)N)NC1=O` [Tyr-Gly-Gly-(L-Tic)-c(Cys-Arg-Arg-Ile-Arg-Pro-Cys)] gave an IC50 [1] of 181 nM.

In the case of `CC(C)C[C@H](NC(=O)[C@H](Cc1ccccc1)NC(=O)CNC(=O)CNC(=O)[C@@H](N)Cc1ccc(O)cc1)C(=O)N[C@@H](CCCNC(=N)N)C(=O)N[C@@H](CCCNC(=N)N)C(=O)N[C@@H]1CSSC[C@H](C(=O)N[C@@H](CCCCN)C(N)=O)NC(=O)[C@H](CCCCN)NC(=O)[C@@H]2CCCN2C(=O)[C@H](CCCNC(=N)N)NC1=O` [Tyr-Gly-Gly-Phe-Leu-Arg-Arg-c((D-Cys)-Arg-Pro-Lys-(D-Cys))-Lys], the IC50 [1] is reported as 6.5 nM.

Work on `CC(C)C[C@H](NC(=O)[C@H](Cc1ccccc1)NC(=O)CNC(=O)CNC(=O)[C@@H](N)Cc1ccc(O)cc1)C(=O)N[C@@H](CCCN=C(N)N)C(=O)N[C@@H](CCCN=C(N)N)C(=O)N[C@H]1CSSC[C@H](C(N)=O)NC(=O)[C@H](CC(C)C)NC(=O)[C@H](CCCCN)NC(=O)[C@@H]2CCCN2C(=O)[C@H](CCCN=C(N)N)NC1=O` [Tyr-Gly-Gly-Phe-Leu-Arg-Arg-c(Cys-Arg-Pro-Lys-Leu-Cys)] yielded an IC50 [1] of 1.9 nM.

In the case of `CC[C@H](C)[C@@H]1NC(=O)[C@H](CCCN=C(N)N)NC(=O)[C@H](CCCN=C(N)N)NC(=O)[C@@H](NC(=O)[C@H](Cc2ccccc2)NC(=O)CNC(=O)CNC(=O)[C@@H](N)Cc2ccc(O)cc2)C(C)(C)SSC[C@@H](C(N)=O)NC(=O)[C@@H]2CCCN2C(=O)[C@H](CCCN=C(N)N)NC1=O` [Tyr-Gly-Gly-Phe-c((L-Pen)-Arg-Arg-Ile-Arg-Pro-Cys)] (H-YGGF[Pen]RRIRPC-NH2; disulfide 5-11), the IC50 [1] is reported as 86 nM.

`CC[C@H](C)[C@@H]1NC(=O)[C@H](CCCNC(=N)N)NC(=O)[C@H](CCCNC(=N)N)NC(=O)[C@@H](NC(=O)[C@H](Cc2ccccc2)NC(=O)CNC(=O)CNC(=O)[C@@H](N)Cc2ccc(O)cc2)CSSC[C@@H](C(N)=O)NC(=O)[C@H](CC(C)C)NC(=O)[C@H](CCCCN)NC(=O)[C@H]2CCCN2C(=O)[C@H](CCCNC(=N)N)NC1=O` [Tyr-Gly-Gly-Phe-c(Cys-Arg-Arg-Ile-Arg-(D-Pro)-Lys-Leu-Cys)] gave an IC50 [1] of 9.6 nM.

For `CC[C@H](C)[C@@H]1NC(=O)[C@H](CCCN=C(N)N)NC(=O)[C@H](CCCN=C(N)N)NC(=O)[C@@H](NC(=O)[C@H](Cc2ccccc2)NC(=O)CNC(=O)CNC(=O)[C@@H](N)Cc2ccc(O)cc2)CSSC[C@@H](C(=O)N[C@@H](CCCCN)C(N)=O)NC(=O)[C@H](CCCN=C(N)N)NC1=O` [Tyr-Gly-Gly-Phe-c(Cys-Arg-Arg-Ile-Arg-Cys)-lys] (H-YGGFCRRIRCK-NH2; disulfide 5-10), the IC50 [1] was 83 nM.

In the case of `CC[C@H](C)[C@@H]1NC(=O)[C@H](CCCN=C(N)N)NC(=O)[C@H](CCCN=C(N)N)NC(=O)[C@@H](NC(=O)[C@H](Cc2ccccc2)NC(=O)CNC(=O)CNC(=O)[C@@H](N)Cc2ccc(O)cc2)CSSC[C@@H](C(=O)N[C@@H](CCCN=C(N)N)C(=O)N[C@@H](CCCCN)C(N)=O)NC1=O` [Tyr-Gly-Gly-Phe-c(Cys-Arg-Arg-Ile-Cys)-Arg-lys] (H-YGGFCRRICRK-NH2; disulfide 5-9), the IC50 [2] is reported as 18 nM.

For `CC[C@H](C)[C@@H]1NC(=O)[C@H](CCCN=C(N)N)NC(=O)[C@H](CCCN=C(N)N)NC(=O)[C@@H](NC(=O)[C@H](Cc2ccccc2)NC(=O)CNC(=O)CNC(=O)[C@@H](N)Cc2ccc(O)cc2)CSSC[C@@H](C(=O)N2CCC[C@H]2C(=O)N[C@@H](CCCCN)C(N)=O)NC1=O` [Tyr-Gly-Gly-Phe-c(Cys-Arg-Arg-Ile-Cys)-Pro-lys] (H-YGGFCRRICPK-NH2; disulfide 5-9), the IC50 [1] was 31 nM.

`CC[C@H](C)[C@@H]1NC(=O)[C@H](CCCNC(=N)N)NC(=O)[C@@H](NC(=O)[C@H](CC(C)C)NC(=O)[C@H](Cc2ccccc2)NC(=O)CNC(=O)CNC(=O)[C@@H](N)Cc2ccc(O)cc2)CSSC[C@@H](C(=O)N[C@@H](CCCCN)C(N)=O)NC(=O)[C@H](CCCNC(=N)N)NC1=O` [Tyr-Gly-Gly-Phe-leu-c(Cys-Arg-Ile-Arg-Cys)-lys] (H-YGGFLCRIRCK-NH2; disulfide 6-10) gave an IC50 [1] of 0.475 nM.
